Results reported in ChEMBL document CHEMBL5465560, “Selectivity Literature for EUbOPEN Chemogenomic Library” (2024).
pIC50: −log10 of the molar value.

What was measured:
[1] = target: cGMP-inhibited 3',5'-cyclic phosphodiesterase 3A (Homo sapiens, UniProt Q14432); assay: Selectivity interaction (Safety Panel 44tm (Eurofins)) EUB0000162b PDE3A; conditions: at 10 µM
[2] = target: SRSF protein kinase 2 (Homo sapiens) (UniProt P78362); assay: Selectivity interaction (KinomeScan (DiscoverX)) EUB0000655a SRPK2; conditions: at 10 µM
[3] = target: Ribosomal protein S6 kinase alpha-5 (Homo sapiens) (UniProt O75582); assay: Selectivity interaction (KinomeScan (DiscoverX)) EUB0000655a RPS6KA5; conditions: at 10 µM
[4] = target: Casein kinase I isoform gamma-2 (Homo sapiens) (UniProt P78368); assay: Selectivity interaction (KinomeScan (DiscoverX)) EUB0000655a CSNK1G2; conditions: at 10 µM
[5] = target: Cyclin-dependent kinase 16 (Homo sapiens) (UniProt Q00536); assay: Selectivity interaction (Kinase panel (KiNativ target engagement assay in Jurkat cells)) EUB0001635a CDK16; type: cell-based; conditions: Selectivity number of off-targets 0.0, Selectivity number of targets 233.0, Source Knowledge https://www.sciencedirect.com/science/article/pii/S2451945619300674?via%3Dihub, at 1 µM
[6] = target: Mast/stem cell growth factor receptor Kit (Homo sapiens, UniProt P10721); assay: Selectivity interaction (Kinase panel (Invitrogen)) EUB0000639a KIT; conditions: at 200 nM
[7] = target: BDNF/NT-3 growth factors receptor (Homo sapiens) (UniProt Q16620); assay: Selectivity interaction (SelectScreen profiling (Invitrogen)) EUB0000607a NTRK2; conditions: at 2 µM
[8] = target: T1, Mitogen-activated protein kinase kinase kinase 3 (Homo sapiens) (UniProt Q99759); assay: Selectivity interaction (KinomeScan (DiscoverX)) EUB0001049a MAP3K3; conditions: at 1 µM
T1 sequence (whole entry): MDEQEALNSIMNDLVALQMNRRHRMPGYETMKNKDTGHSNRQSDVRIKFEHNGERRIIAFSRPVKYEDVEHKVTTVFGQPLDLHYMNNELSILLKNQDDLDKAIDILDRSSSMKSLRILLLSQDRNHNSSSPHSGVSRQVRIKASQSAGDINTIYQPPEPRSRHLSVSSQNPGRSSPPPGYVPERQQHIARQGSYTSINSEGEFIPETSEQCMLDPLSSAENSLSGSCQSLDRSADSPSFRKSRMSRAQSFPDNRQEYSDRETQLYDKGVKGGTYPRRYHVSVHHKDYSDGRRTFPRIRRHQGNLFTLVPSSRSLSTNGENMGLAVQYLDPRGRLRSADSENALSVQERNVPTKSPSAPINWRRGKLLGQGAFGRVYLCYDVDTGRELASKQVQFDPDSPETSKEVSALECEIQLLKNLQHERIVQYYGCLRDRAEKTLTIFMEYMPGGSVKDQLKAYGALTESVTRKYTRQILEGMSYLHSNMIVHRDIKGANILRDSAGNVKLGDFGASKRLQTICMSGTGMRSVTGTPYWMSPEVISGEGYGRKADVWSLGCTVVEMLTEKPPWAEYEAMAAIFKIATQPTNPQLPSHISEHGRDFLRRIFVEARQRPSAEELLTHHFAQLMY

[9] = target: Tyrosine-protein kinase ABL1 (Homo sapiens, UniProt P00519); assay: Selectivity interaction (Kinase panel (enzymatic assay)) EUB0000595a ABL1
[10] = target: T2, Rhodopsin kinase GRK1 (Homo sapiens) (UniProt Q15835); assay: Selectivity interaction (KinomeScan (DiscoverX)) EUB0000595a GRK1; conditions: at 10 µM
T2 sequence (whole entry): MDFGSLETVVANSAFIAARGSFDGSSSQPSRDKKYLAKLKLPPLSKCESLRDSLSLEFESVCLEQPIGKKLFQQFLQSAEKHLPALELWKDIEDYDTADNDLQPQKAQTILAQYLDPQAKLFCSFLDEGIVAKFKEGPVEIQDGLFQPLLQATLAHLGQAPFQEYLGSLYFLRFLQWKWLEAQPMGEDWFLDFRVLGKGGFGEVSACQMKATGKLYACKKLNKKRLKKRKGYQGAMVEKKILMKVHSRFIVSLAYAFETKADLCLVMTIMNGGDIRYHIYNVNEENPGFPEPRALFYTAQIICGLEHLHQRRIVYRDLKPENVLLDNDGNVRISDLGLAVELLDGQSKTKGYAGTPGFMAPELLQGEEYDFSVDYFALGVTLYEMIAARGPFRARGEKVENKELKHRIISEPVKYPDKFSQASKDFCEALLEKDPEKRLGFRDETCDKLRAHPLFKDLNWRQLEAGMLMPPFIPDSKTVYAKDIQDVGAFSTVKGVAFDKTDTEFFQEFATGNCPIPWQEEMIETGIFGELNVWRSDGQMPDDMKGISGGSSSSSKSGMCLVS

[11] = target: Proto-oncogene tyrosine-protein kinase receptor Ret (Homo sapiens, UniProt P07949); assay: (§1) Selectivity interaction (KinomeScan (DiscoverX)) EUB0000045b RET
[12] = system: Proto-oncogene tyrosine-protein kinase receptor Ret (Homo sapiens), P07949 [M918T]; assay: as §1
[13] = system: Proto-oncogene tyrosine-protein kinase receptor Ret (Homo sapiens), P07949 [V804L]; assay: as §1
[14] = system: Proto-oncogene tyrosine-protein kinase receptor Ret (Homo sapiens), P07949 [V804M]; assay: as §1
[15] = target: Mitogen-activated protein kinase 8 (Homo sapiens, UniProt P45983); assay: Selectivity interaction (KinomeScan (DiscoverX)) EUB0000618a MAPK8; conditions: at 10 µM
[16] = target: 5'-AMP-activated protein kinase catalytic subunit alpha-1 (Homo sapiens, UniProt Q13131); assay: Selectivity interaction (Ambit KINOMEscan and KiNATiv profiling in Jurkat cells) EUB0000090b PRKAA1; type: cell-based; conditions: at 1 µM
[17] = target: Serine/threonine-protein kinase 25 (Homo sapiens) (UniProt O00506); assay: Selectivity interaction (KinomeScan (DiscoverX)) EUB0001619a STK25; conditions: at 1 µM
Serine/threonine-protein kinase 25 (Homo sapiens), sequence (O00506 whole entry, looked up): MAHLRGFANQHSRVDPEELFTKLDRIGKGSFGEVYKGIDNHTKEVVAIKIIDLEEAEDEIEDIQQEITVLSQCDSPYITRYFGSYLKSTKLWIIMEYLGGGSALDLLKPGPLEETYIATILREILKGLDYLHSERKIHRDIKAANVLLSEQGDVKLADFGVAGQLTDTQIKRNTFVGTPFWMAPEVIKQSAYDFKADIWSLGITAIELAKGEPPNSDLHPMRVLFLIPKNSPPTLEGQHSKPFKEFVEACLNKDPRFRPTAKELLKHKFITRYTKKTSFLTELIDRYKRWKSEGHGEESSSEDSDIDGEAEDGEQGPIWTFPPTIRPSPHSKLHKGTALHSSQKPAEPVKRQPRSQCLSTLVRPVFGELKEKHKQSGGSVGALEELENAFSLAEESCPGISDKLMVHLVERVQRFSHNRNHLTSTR

Proto-oncogene tyrosine-protein kinase receptor Ret (Homo sapiens), P07949 [V804M], sequence (P07949 whole entry V804M): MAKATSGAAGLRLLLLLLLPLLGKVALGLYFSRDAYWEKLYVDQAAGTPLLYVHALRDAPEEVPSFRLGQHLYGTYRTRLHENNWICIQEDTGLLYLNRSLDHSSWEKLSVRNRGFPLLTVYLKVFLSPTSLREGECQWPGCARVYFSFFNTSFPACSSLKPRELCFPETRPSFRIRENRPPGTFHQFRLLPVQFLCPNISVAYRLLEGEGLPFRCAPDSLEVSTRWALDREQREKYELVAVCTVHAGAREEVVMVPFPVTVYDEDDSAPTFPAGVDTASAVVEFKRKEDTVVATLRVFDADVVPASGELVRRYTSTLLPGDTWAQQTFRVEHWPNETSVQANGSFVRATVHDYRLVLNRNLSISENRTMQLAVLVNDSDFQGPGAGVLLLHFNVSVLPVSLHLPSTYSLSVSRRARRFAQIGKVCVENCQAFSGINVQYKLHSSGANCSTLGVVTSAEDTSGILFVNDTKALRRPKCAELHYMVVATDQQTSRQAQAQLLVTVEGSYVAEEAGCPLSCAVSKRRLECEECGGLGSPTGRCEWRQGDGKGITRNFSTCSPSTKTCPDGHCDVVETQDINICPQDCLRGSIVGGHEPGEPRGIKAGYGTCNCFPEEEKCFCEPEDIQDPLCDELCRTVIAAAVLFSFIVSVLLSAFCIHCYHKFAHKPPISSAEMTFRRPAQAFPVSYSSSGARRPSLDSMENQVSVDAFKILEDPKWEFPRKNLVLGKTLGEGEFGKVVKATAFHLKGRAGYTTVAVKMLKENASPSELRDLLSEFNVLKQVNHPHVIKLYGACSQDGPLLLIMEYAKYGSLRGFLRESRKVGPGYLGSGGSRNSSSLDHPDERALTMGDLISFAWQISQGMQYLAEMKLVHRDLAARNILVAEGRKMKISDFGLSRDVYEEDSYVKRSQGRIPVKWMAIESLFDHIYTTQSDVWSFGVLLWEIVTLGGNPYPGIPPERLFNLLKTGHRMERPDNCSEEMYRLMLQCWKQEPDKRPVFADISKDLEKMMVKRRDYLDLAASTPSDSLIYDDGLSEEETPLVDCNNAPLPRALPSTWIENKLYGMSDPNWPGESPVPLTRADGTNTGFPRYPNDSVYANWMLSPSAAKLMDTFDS
Proto-oncogene tyrosine-protein kinase receptor Ret (Homo sapiens), P07949 [V804L], sequence (P07949 whole entry V804L): as the sequence (P07949 whole entry V804M) above, with M804L counted along it
Proto-oncogene tyrosine-protein kinase receptor Ret, sequence (P07949 whole entry): as the sequence (P07949 whole entry V804M) above, with M804V counted along it
Proto-oncogene tyrosine-protein kinase receptor Ret (Homo sapiens), P07949 [M918T], sequence (P07949 whole entry M918T): as the sequence (P07949 whole entry V804M) above, with M804V, M918T counted along it
SRSF protein kinase 2 (Homo sapiens), sequence (P78362 whole entry, looked up): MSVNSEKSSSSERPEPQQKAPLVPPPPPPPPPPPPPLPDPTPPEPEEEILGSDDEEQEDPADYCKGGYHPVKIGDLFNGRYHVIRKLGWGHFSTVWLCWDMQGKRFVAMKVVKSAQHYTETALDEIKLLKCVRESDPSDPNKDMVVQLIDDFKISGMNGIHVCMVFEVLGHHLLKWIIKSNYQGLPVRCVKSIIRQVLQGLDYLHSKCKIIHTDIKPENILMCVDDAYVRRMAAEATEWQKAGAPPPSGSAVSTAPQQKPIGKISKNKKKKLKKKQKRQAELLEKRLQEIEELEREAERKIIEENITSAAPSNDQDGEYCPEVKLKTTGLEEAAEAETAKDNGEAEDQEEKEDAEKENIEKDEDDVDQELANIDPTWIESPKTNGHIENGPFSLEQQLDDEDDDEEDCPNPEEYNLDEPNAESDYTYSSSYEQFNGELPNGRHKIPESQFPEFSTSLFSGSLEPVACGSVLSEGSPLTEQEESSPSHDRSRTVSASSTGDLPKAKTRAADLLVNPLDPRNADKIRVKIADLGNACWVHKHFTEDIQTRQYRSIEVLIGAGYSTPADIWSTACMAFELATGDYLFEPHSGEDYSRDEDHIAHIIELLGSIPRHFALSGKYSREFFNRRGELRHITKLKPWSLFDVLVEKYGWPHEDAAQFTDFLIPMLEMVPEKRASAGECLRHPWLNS
BDNF/NT-3 growth factors receptor (Homo sapiens), sequence (Q16620 32-822 limits assumed): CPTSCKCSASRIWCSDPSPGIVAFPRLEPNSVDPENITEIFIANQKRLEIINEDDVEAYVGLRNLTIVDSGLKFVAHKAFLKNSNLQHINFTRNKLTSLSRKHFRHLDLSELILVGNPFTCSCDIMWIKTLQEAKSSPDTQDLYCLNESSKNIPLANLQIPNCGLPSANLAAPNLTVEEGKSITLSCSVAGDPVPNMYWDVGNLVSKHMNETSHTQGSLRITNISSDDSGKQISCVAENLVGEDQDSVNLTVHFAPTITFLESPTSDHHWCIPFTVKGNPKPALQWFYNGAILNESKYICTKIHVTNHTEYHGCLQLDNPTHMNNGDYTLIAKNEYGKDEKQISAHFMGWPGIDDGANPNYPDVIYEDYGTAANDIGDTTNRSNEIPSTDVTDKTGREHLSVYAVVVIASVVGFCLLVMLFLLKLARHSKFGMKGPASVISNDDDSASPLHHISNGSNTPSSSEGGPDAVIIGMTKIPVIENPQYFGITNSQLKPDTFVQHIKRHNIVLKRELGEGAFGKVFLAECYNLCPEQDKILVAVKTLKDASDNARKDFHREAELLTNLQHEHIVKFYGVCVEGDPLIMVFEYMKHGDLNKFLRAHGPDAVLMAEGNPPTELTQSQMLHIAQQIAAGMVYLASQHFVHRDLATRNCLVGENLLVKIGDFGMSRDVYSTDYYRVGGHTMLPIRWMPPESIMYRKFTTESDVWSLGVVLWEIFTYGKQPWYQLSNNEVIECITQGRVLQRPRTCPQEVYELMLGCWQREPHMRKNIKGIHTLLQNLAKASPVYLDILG
cGMP-inhibited 3',5'-cyclic phosphodiesterase 3A, sequence (Q14432 whole entry): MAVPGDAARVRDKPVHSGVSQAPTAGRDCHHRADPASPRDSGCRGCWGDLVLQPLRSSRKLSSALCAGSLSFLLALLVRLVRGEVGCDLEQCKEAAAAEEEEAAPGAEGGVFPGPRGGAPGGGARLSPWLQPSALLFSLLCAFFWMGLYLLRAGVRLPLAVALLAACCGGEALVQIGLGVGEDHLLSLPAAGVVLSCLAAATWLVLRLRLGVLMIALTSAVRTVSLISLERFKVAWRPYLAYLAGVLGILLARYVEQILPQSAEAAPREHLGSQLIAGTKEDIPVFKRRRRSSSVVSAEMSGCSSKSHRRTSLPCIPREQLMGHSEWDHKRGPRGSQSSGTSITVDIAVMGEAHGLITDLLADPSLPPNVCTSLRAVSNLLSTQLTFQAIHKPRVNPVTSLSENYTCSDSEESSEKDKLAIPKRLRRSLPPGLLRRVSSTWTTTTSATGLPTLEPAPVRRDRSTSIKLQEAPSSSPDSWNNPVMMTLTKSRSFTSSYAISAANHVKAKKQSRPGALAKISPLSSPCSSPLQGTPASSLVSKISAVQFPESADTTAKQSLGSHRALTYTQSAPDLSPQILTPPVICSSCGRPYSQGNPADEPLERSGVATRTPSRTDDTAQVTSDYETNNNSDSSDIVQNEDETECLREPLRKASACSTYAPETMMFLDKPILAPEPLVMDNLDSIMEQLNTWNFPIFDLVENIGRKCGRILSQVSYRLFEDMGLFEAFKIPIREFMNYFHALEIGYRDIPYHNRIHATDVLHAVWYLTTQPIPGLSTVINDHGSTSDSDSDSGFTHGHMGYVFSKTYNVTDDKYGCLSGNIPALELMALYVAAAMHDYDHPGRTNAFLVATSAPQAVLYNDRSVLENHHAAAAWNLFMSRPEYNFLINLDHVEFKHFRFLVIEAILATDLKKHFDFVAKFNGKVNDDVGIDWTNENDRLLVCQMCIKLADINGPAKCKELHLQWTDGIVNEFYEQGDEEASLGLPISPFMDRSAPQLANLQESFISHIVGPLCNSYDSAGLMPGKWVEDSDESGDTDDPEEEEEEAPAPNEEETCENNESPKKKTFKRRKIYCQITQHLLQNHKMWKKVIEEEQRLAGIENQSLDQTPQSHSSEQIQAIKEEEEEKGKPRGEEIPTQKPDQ
5'-AMP-activated protein kinase catalytic subunit alpha-1, sequence (Q13131 whole entry, looked up): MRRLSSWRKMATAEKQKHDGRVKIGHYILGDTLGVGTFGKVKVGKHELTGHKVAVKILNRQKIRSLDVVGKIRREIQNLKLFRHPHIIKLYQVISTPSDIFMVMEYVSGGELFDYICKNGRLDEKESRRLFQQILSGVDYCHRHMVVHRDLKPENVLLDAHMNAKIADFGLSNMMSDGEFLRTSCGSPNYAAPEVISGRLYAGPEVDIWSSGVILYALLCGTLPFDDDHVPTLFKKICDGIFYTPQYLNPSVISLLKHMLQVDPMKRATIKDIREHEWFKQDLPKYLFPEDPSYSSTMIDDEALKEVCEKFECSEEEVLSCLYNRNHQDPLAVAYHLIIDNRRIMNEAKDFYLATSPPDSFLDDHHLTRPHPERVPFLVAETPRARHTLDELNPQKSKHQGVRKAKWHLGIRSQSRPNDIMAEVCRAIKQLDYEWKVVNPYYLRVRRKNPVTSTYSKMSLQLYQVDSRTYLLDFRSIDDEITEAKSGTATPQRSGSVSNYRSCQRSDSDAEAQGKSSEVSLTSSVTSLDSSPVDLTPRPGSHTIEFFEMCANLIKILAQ

## CN(C)C(=O)Cn1cc(-c2ccc(-c3cncc4ccccc34)cc2)cn1
[1]
  % of control: 82%

## CN(C)CCOc1ccc(-c2nc(-c3ccncc3)c(-c3ccc4c(c3)CC/C4=N\O)[nH]2)cc1
[2]
  % of control: 100%
[3]
  % of control: 100%
[4]
  % of control: 72%

## C=CC(=O)Nc1ccc(C(=O)Nc2[nH]nc3c2CN(C(=O)N[C@H](CN(C)C)c2ccccc2)C3(C)C)cc1
[5]
  % of engagement: 2.3%

## CC[C@@H]1[C@H](F)C(=O)N[C@@H]1COc1nccc2cc(C(N)=O)c(OC)cc12 [ZIMLOVISERTIB]
[6]
  % of inhibition: 1.04%

## CNC(=O)Nc1ccc(-c2nc(N3CC4CCC(C3)O4)c3cnn(C4CCC5(CC4)OCCO5)c3n2)cc1
[7]
  % of inhibition: 1%

## COc1cc(Nc2nc(C)cc(-c3cnn4nc(OC)ccc34)n2)cc(C(F)(F)F)c1
[8]
  % of control: 72%

## COCC(=O)NC/C=C/c1ccc2ncnc(Nc3ccc(Oc4ccc(C)nc4)c(C)c3)c2c1 [CP-724714]
[9]
  pIC50: < 5.00
[10]
  % of control: 100%

## C=CC(=O)Nc1cc(-n2c(=O)ccc3cnc4ccc(-c5ccc(NS(C)(=O)=O)cc5)cc4c32)ccc1C
[11]; at 1 µM
  % of control: 88%
[11]; at 10 µM
  % of control: 96%
[12]; at 1 µM
  % of control: 11%
[12]; at 10 µM
  % of control: 74%
[13]; at 1 µM
  % of control: 79%
[13]; at 10 µM
  % of control: 100%
[14]; at 1 µM
  % of control: 85%
[14]; at 10 µM
  % of control: 100%

## O[C@H]1CC[C@H](Nc2ncc3nc(Nc4c(F)cc(F)cc4F)n([C@H]4CCOC4)c3n2)CC1
[15]
  % of control: 0%

## CN(C)C/C=C/C(=O)Nc1ccc(C(=O)N2CCCC(Nc3ncc(Cl)c(-c4c[nH]c5ccccc45)n3)C2)cc1 (stereo unspecified)
[16]
  % of control: 79%

## N#Cc1cccc(-c2c[nH]c3ncnc(N4CCOCC4)c23)c1
[17]
  % of control: 28%
